From ChEMBL document CHEMBL1201862, “PubChem BioAssay data set” (2004)
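These data come from cells grown in 96-well plates and exposed to compound for 48 hours at five concentrations. The concentration for 50% growth inhibition is given as GI50.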 Calls of active or inactive are those of the source. Rule as the data show it: active = GI50 up to about 1.1 µM and inactive = higher.

How the values were obtained:
Experiment in all cases: NCI tumour cell line growth inhibition, 48 h
U-251 = system: U-251
HOP-62 = system: HOP-62
K562 = system: K562
UO-31 = system: UO-31
NCI-H522 = system: NCI-H522
NCI-H23 = system: NCI-H23
SF-268 = system: SF-268
Malme-3M = system: Malme-3M
T47D = system: T47D
PC-3 = system: PC-3
A498 = system: A498
SK-MEL-28 = system: SK-MEL-28
UACC-257 = system: UACC-257
COLO 205 = system: COLO 205
MDA-MB-435 = system: MDA-MB-435
HCT-15 = system: HCT-15
KM12 = system: KM12
SN12C = system: SN12C
NCI/ADR-RES = system: NCI/ADR-RES
786-0 = system: 786-0

`O=C(Nc1ccc2oc(=O)c(C(=O)O)cc2c1)Oc1ccccc1` was tested, and the GI50 (U-251) was > 100 µM (inactive), the GI50 (HOP-62) was > 100 µM (inactive) and the GI50 (K562) was > 100 µM (inactive). The GI50 (UO-31) was > 100 µM (inactive), the GI50 (NCI-H522) was > 100 µM (inactive) and the GI50 (NCI-H23) was > 100 µM (inactive). The GI50 (SF-268) was > 100 µM (inactive), the GI50 (Malme-3M) was > 100 µM (inactive) and the GI50 (T47D) was > 100 µM (inactive). The GI50 (PC-3) was > 100 µM (inactive), the GI50 (A498) was > 100 µM (inactive) and the GI50 (SK-MEL-28) was > 100 µM (inactive). The GI50 (UACC-257) was > 100 µM (inactive), the GI50 (COLO 205) was > 100 µM (inactive) and the GI50 (MDA-MB-435) was > 100 µM (inactive). For the same compound, the GI50 (HCT-15) was over 100 µM, the GI50 (KM12) was > 100 µM (inactive) and the GI50 (SN12C) was > 100 µM (inactive). For the same compound, the GI50 (NCI/ADR-RES) was > 100 µM (inactive) and the GI50 (786-0) was > 100 µM (inactive).

In the case of `O=C1CCC(c2ccccc2)=NN1c1nc2ccccc2s1`, the GI50 (U-251) is reported as 29.4 µM (inactive), the GI50 (HOP-62) is reported as 36.9 µM (inactive) and the GI50 (K562) is reported as 29.8 µM (inactive). The GI50 (UO-31) was 31.5 µM (inactive), the GI50 (NCI-H522) was 24.5 µM (inactive) and the GI50 (NCI-H23) was 30.2 µM (inactive). The GI50 (SF-268) was 27.2 µM (inactive), the GI50 (Malme-3M) was 32.2 µM (inactive) and the GI50 (T47D) was 11.9 µM (inactive). The GI50 (PC-3) was 26.1 µM (inactive), the GI50 (A498) was 30.1 µM (inactive) and the GI50 (SK-MEL-28) was 40.2 µM (inactive). The GI50 (UACC-257) was 27.2 µM (inactive), the GI50 (COLO 205) was 13.2 µM (inactive) and the GI50 (MDA-MB-435) was 23.3 µM (inactive). The GI50 (HCT-15) was 29.6 µM, the GI50 (KM12) was 29.6 µM (inactive) and the GI50 (SN12C) was 29.4 µM (inactive). For the same compound, the GI50 (NCI/ADR-RES) was 28.7 µM (inactive) and the GI50 (786-0) was 38.3 µM (inactive).

With `CCOC(=O)C1=C(C)NC(=S)NC1c1cccc(O)c1` (stereo not given) [MONASTROL] the GI50 (U-251) was 33.9 µM (inactive), the GI50 (HOP-62) was 68.1 µM (inactive) and the GI50 (K562) was 32.7 µM (inactive). For the same compound, the GI50 (UO-31) was > 100 µM (inactive), the GI50 (NCI-H522) was 30.3 µM (inactive) and the GI50 (NCI-H23) was 59.8 µM (inactive). The GI50 (SF-268) was 56.5 µM (inactive), the GI50 (Malme-3M) was 60.3 µM (inactive) and the GI50 (T47D) was 34.9 µM (inactive). For the same compound, the GI50 (PC-3) was 36.1 µM (inactive), the GI50 (A498) was 37.1 µM (inactive) and the GI50 (SK-MEL-28) was 81.5 µM (inactive). For the same compound, the GI50 (UACC-257) was 62.7 µM (inactive), the GI50 (COLO 205) was 31.6 µM (inactive) and the GI50 (MDA-MB-435) was 17.2 µM (inactive). The GI50 (HCT-15) was 39.4 µM, the GI50 (KM12) was 35 µM (inactive) and the GI50 (SN12C) was 35.5 µM (inactive). For the same compound, the GI50 (NCI/ADR-RES) was > 100 µM (inactive) and the GI50 (786-0) was 57.9 µM (inactive).
